{"source": "patent US7943795B2", "about": "“Vitamin D receptor modulators” (Eli Lilly and Company, priority 2004, dated 2011)", "key": {"[1]": {"target": "T1, RXR-VDR heterodimer (Homo sapiens, UniProt P11473)", "T1 construct": "add the Reporter gene pFR-LUC; and add the Gal-4-RXR-DEF and VP16-VDR-LBD; expressed in transfected cells; host or cells: SaOS-2 cells", "T1 sequence (P11473 127-423 limits assumed)": "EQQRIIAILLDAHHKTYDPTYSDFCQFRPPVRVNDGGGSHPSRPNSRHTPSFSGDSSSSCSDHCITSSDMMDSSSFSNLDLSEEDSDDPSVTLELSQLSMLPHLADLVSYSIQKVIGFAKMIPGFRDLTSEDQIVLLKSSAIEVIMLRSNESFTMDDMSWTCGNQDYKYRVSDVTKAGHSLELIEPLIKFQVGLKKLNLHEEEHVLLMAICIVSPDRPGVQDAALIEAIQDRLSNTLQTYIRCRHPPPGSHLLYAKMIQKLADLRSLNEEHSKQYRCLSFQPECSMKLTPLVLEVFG", "T1 sequence (P19793 201-462 partner limits assumed)": "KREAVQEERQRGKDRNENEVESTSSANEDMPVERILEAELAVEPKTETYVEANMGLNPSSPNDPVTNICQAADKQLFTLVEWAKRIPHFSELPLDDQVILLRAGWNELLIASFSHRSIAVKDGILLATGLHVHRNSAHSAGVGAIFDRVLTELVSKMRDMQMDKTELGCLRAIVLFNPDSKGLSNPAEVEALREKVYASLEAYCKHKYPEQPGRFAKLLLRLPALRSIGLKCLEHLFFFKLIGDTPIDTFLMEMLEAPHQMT", "experiment": "RXR-VDR heterodimerization (SaOS-2 cells) test", "assay_type": "cell-based", "conditions": "Gal-4-RXR-DEF / VP16-VDR-LBD, luciferase reporter", "protocol": "2. The RXR-VDR heterodimerization (SaOS-2 cells) test is described in the “Assay” section of the Description, infra.\n1. The RXR-VDR Heterodimer Assay:\nThis assay provides the VDR activity of a test compound. It is desirable to have low EC50 values for a compound in this assay. […] Desired assay results are EC50 values less than or equal to 600 nM. Preferred assay results are less than 250 nM, and most preferably less than 150 nM.\n(1) Materials and Method for RXR-VDR Heterodimerization Assay Transfection\n• Method: Reagents: FuGENE 6 Transfection Reagent (Roche Cat #1 814 443); Growth Media: D-MEM High Glucose (Gibco BRL Cat #11054-020), 10% heat inactivated FBS, (Gibco BRL Cat#10092-147) 1% antibiotic-antimycotic (Ab-Am); (Gibco BRL Cat #15240-062). • Cells: Grow SaOS-2 cells in T-150 cm^2 culture flasks in growth media keeping the density at 5-6×10^5 cells/ml. Passage cells 1:3 twice a week. Add Trypsin EDTA (Gibco BRL Cat #25300-020) and incubate. Resuspend cells in plating media and transfer into growth media. • Wash Media: HBSS Low Glucose Without Phenol Red (Gibco BRL Cat #14175-095), 1% Ab-Am. Plating Media: D-MEM Low Glucose Without Phenol Red (Gibco BRL Cat #11054-020), 1% Ab-Am; D-MEM; 10% Stripped FBS (Hyclone Cat#SH30068.03 Lot #AHM9371); • Transfection/Treatment Media: D-MEM Low Glucose Without Phenol Red only; T-150 cm^2 culture flask: Use Corning Coastar T-150 cm^2 culture flask (Cat #430825) to grow the cells. • Luciferase Assay Reagent: Use Steady-Glo Luciferase Reagent from Promega (Cat #E2550) Consists of: E2533 Assay Substrate, lyophilized product and E2543 Assay Buffer. Thaw at room temperature and store. • Cell Harvesting/Count: Aspirate media from culture flask, rinse cells with HBSS and aspirate. Add trypsin and incubate. When cells appear detached, resuspend cells in growth media. Transfer into a new flask with fresh growth media for passaging the cells. Plate 96 well plates and two extra plates. Mix the cell suspension using pipette. To count the cells using a Hematocytometer. • Plate seeding: Use plating media 10% Stripped FBS in D-MEM Low Glucose, without Phenol Red, 1% Ab-Am. Plate 14 plates @ 165 μl/well. In sterile flask add cell suspension to plating media and mix. Add cells/well. Place the cells in the incubator. Cells should be about 75% confluent prior to transfection. DAY 2: Transfection: Step 1, DNA and Media: Add plain DMEM media to tubes for mixing the DNA; add the Reporter gene pFR-LUC; and add the Gal-4-RXR-DEF and VP16-VDR-LBD. Step 2, FuGENE and Media: Prepare plain DMEM media in a tubes for mixing FuGENE, add FuGENE 6 Transfection Reagent, and incubate. Step 3, FuGENE, DNA and Media Complex: Add FuGENE Media complex from step 2 to DNA Media complex from step 1 and incubate. Step 4, FuGENE, DNA and Media Complex to 96 well plate: Add FuGENE-DNA-Media complex from step 3 to each plate. Incubate. • Day 3: Dosing: Treatment preparation. Allow for transfection time. Make a stock solution of the compounds in DMSO and vortex until all the compounds have been dissolved. Further dilute in D-MEM (Low Glucose—without Phenol Red) Add compounds in quadruplicate to give desired final volume then incubate. • Day 4: Luciferase Assay: Read the plates after drug treatment. Remove part of media from all the wells and leave remainder. Add Steady-Glo Luciferase Reagent mixture/wells and incubate. Count each well using a Luminescence counter, Top Count NXT by Packard preferably set a delay between plates to reduce the background."}, "[2]": {"test_system": "rat osteocalcin promoter", "experiment": "OCN (osteocalcin) promoter assay", "assay_type": "cell-based", "conditions": "RG-15 (ROS 17/2.8) cells, 48 hr treatment, luciferase reporter", "protocol": "4. The OCN Promoter test is described in the “Assay” section of the Description, infra.\nThe OCN (Osteocalcin) Promoter Assay\nThe OCN Promoter Assay is an indicator and marker for osteoporosis. Desired assay results are EC50 less than or equal to 325 nM. Preferred assay results are less than 50 nM.\nThe activation of osteocalcin by VDR ligands is evaluated in a rat osteoblast-like cell line RG-15 (ROS 17/2.8) stably expressing rat osteocalcin promoter fused with luciferase reporter gene. The stable cell lines are established as reported before (Activation of Osteocalcin Transcription involves interaction of protein kinase A- and Protein kinase C-dependent pathways. Boguslawski, G., Hale, L. V., Yu, X.-P., Miles, R. R., Onyia, J. E., Santerre R. F., Chandrasekhar, S. J Biol. Chem. 275, 999-1006, 2000). Confluent RG-15 cells maintained in DMEM/F-12 medium (3:1) containing 5% FBS, 300 μg/ml G418 and at 37° C. under 5% CO2/95% air atmosphere are trypsinized (0.25% trypsin) and plated into white opaque 96-well cell culture plates (25000 cells/well). After 24 hr, cells (in DMEM/F-12 medium+2% FBS) are treated with various concentrations of compounds, dissolved in DMSO. The final DMSO concentration remains at 0.01% (v/v). After 48 hr treatment, the medium is removed, cells are lysed with 50 μl of lysis buffer (From Luciferase reporter assay system, Roche Diagnostics, Indianapolis, Ind.) and then assayed for luciferase activity using the Luciferase Reporter Gene Assay kit from Boehringer Mannheim as per manufacturer's specifications."}, "[3]": {"experiment": "Mouse hypercalcemia assay", "assay_type": "in vivo", "protocol": "5. The Mouse Hypercalcemia test is described in the “Assay” section of the Description, infra.\nThe Mouse Hypercalcemia Assay\nThe Mouse Hypercalcemia Assay is a six day hypercalcemia test for toxicity and selectivity. Acceptable test results are levels greater than 30 μg/kg/day. Preferred assay results are levels greater than 300 μg/kg/day.\nWeanling, virus—antibody-free, five to six weeks old female DBF mice (Harlan, Indianapolis, Ind.) are used for all the studies. Animals are allowed to acclimate to local vivarium conditions for 2 days. Mice are maintained on a 12 hr light/dark cycle at 22° C. with ad lib access to food (TD 5001 with 1.2% Ca and 0.9% P, Teklad, Madison, Wis.) and water. The animals then are divided into groups with 4-5 mice per group. Different doses of test compounds prepared in 10% ethanol and 90% sesame oil, or in an aqueous suspension of sodium lauryl sulfate and CMC (the latter formulation for acidic compounds) are administered to mice orally via gavage for 6 days. 1α-25(OH)2D3 0.5 μg/kg/d was also given to one group of mice as the positive control. Serum ionized calcium is evaluated at 6 hours after the last dosing under isoflurane anesthesia by Ciba-Corning Ca++/PH Analyzer, (Model 634, Chiron Diagnostics Corp., East Walpole, Mass.). Raw data of group differences is assessed by analysis of variance (ANOVA) using Fisher's protected least significant difference (PLSD) where the significance level was P<0.05."}, "[4]": {"target": "T2, VDR (Homo sapiens, UniProt P11473)", "T2 construct": "the receptor expression vector pGal4-VDR-LBD (10 ng); expressed in transfected cells; host or cells: Caco-2 cells", "T2 sequence (P11473 127-423 limits assumed)": "T1 sequence (P11473 127-423 limits assumed)", "experiment": "VDR CTF (Caco-2 cells) co-transfection assay", "assay_type": "cell-based", "conditions": "pGal4-VDR-LBD, luciferase reporter", "protocol": "3. The VDR CTF (Caco-2 cells) test is described in the “Assay” section of the Description, infra.\nThe Caco-2 cell assay is an indicator for the undesirable condition of hypercalcemia. This co-transfection assay is a surrogate assay for in vivo calcemic activity of VDR ligands. It is desirable to have high EC50 values for a test compound in this assay. The higher the EC50 values for a compound the less calcemic it will be in vivo. Desired assay results are EC50 greater than or equal to 300 nM. Preferred assay results are greater than 1000 nM.\nCaco-2 cells, grown in phenol red free, DMEM (Invitrogen, Carlsbad, Calif.) containing 10% charcoal-stripped FBS (Hyclone, Logan, Utah), are transfected with Fugene 6 reagent (Roche Diagnostics, Indianapolis, Ind.). Cells (5000/well) are plated 18 h before transfection in a 96 well plate. The cells are transfected with Gal4-responsive reporter pFRLuc (150 ng, Stratagene, La Jolla Calif.) and the receptor expression vector pGal4-VDR-LBD (10 ng), along with Fugene 6 reagent (0.2 μl/well). The DNA-Fugene complex is formed by incubating the mixture for 30 m at room temperature. The cells are transfected in triplicate for 5 h, and treated with various concentrations of VDR ligands (from 0.01 nM to […] concentration range) 18 h post-transfection. The luciferase activity is quantified using Steady-Glo reagent kit (Promega, Madison, Wis.) as per manufacturer's specifications."}, "[5]": {"conditions": "no effect level: highest dose that did not cause hypercalcemia, oral gavage for 6 days, female DBF mice, serum ionized calcium"}}}
{"compound": "CCC(Oc1ccc(C(CC)(CC)c2ccc3cc(C(=O)N(C)CC(=O)O)ccc3c2)cc1C)C(O)C(C)(C)C", "note": "(stereo not drawn) [Ex. 8, N-methyl-2-[6-{1-ethyl-1-[4-(1-ethyl-2-hydroxy-3,3-dimethyl-butoxy)-3-methyl-phenyl]-propyl}-naphthalene-2-carbonyl-amino]acetic acid]", "values": [{"measurement": "EC50", "setting": "[1]", "result": 2, "unit": "nM"}, {"measurement": "EC50", "setting": "[2]; Rattus norvegicus, 48 h", "result": 0.6, "unit": "nM"}, {"measurement": "Mouse Hypercal", "setting": "[3]; [5]", "result": 300, "unit": "µg/kg/day"}]}
{"compound": "CCC(Oc1ccc(C(CC)(CC)c2ccc3cc(C(=O)NCC(=O)O)ccc3c2)cc1C)C(O)C(C)(C)C", "note": "(stereo not drawn) [Ex. 7, 2-[6-{1-ethyl-1-[4-(1-ethyl-2-hydroxy-3,3-dimethyl-butoxy)-3-methyl-phenyl]-propyl}-naphthalene-2-carbonylamino]acetic acid]", "values": [{"measurement": "EC50", "setting": "[1]", "result": 2.6, "unit": "nM"}, {"measurement": "EC50", "setting": "[2]; Rattus norvegicus, 48 h", "result": 0.7, "unit": "nM"}, {"measurement": "Mouse Hypercal", "setting": "[3]; [5]", "result": 100, "unit": "µg/kg/day"}]}
{"compound": "CCC(CC)(c1ccc(OCC(O)C(C)(C)C)c(C)c1)c1ccc2cc(C(=O)O)ccc2c1", "note": "(single isomer, unassigned) [Ex. 2B, 6-{1-Ethyl-1-[4-(2-hydroxy-3,3-dimethyl-butoxy)-3-methyl-phenyl]-propyl}-naphthalene-2-carboxylic acid]", "values": [{"measurement": "EC50", "setting": "[1]", "result": 25.3, "unit": "nM"}, {"measurement": "EC50", "setting": "[2]", "result": 18.4, "unit": "nM"}, {"measurement": "Mouse Hypercal", "setting": "[3]; female, DBF, mouse, in vivo, po, 6 days", "result": 1000, "unit": "µg/kg/day"}]}
{"compound": "CCC(CC)(c1ccc(OCC(=O)C(C)(C)C)c(C)c1)c1ccc2ccc(C(=O)O)cc2c1", "note": "[Ex. 6, 7-{1-[4-(3,3-Dimethyl-2-oxobutoxy)-3-methylphenyl]-1-ethylpropyl}naphthalene-2-carboxylic acid]", "values": [{"measurement": "EC50", "setting": "[4]", "result": 714, "unit": "nM"}, {"measurement": "EC50", "setting": "[1]", "result": 715, "unit": "nM"}, {"measurement": "EC50", "setting": "[2]; Rattus norvegicus, 48 h", "result": 104, "unit": "nM"}]}
